Results on 17 compounds are retold here after patent publication US20090275648A1, “MACROCYCLIC GHRELIN RECEPTOR ANTAGONISTS AND INVERSE AGONISTS AND METHODS OF USING THE SAME” (priority 2005, published 2009).

Molecules are shown by their SMILES.

As usually defined, the Ki is a dissociation constant, usually derived from enzyme kinetics or from competition with a known ligand. A high value points to a looser hold on the target. The term IC50 denotes the point on the concentration scale where inhibition reaches its midpoint. A lower IC50 goes with greater potency in that assay.

Test [1] has as its target T1, human ghrelin receptor (hGHS-R1a) (Homo sapiens, UniProt Q92847).
T1 construct: purchased PerkinElmer BioSignal #RBHGHSM, lot#1887; host or cells: HEK-293 cells, stably transfected; membranes
Briefly: Competitive radioligand binding assay (ghrelin receptor), [125I]-ghrelin, GHS-R/HEK 293 membranes. Conditions: competition with [125I]-ghrelin. On the procedure: The competitive binding assay at the human growth hormone secretagogue receptor (HGHS-R1a) was carried out analogously to assays described in the literature. (Bednarek M A et al. Structure-function studies on the new growth hormone-releasing peptide ghrelin: minimal sequence of ghrelin necessary for activation of growth hormone secretagogue receptor 1a; J. Med. Chem. 2000, 43, 4370-4376; Palucki, B. L. et al. Spiro(indoline-3,4′-piperidine) growth hormone secretagogues as ghrelin mimetics; Bioorg. Med. Chem. Lett. […], 11, 1955-1957).
Membranes (GHS-R/HEK 293) were prepared from HEK-293 cells stably transfected with the human ghrelin receptor (hGHS-R1a). These membranes were provided by PerkinElmer BioSignal (#RBHGHSM, lot#1887) and utilized at a quantity of 0.71 μg/assay point. • 1. [^125]-Ghrelin (PerkinElmer, #NEX-388); final concentration: 0.0070-0.0085 nM • 2. […] Multiscreen Harvest plates-GF/C (Millipore, #MAHFC1H60) • 4. Deep-well polypropylene titer plate (Beckman Coulter, #267006) • 5. TopSeal-A (PerkinElmer, #6005185) • 6. Bottom seal (Millipore, #MATAH0P00) • 7. MicroScint-0 (PerkinElmer, #6013611) • 8. Binding Buffer: 25 mM Hepes (pH 7.4), 1 mM CaCl2, 5 mM MgCl2, 2.5 mM EDTA, 0.4% BSA
Competition experiments were performed in a 300 μl filtration assay format. • 1. 220 μL of membranes diluted in binding buffer • 2. 40 μL of compound diluted in binding buffer • 3.
Compounds were provided frozen on dry ice at a stock concentration of 10 mM diluted in 100% DMSO and stored at −80° C. until the day of testing. On the test day, compounds were allowed to thaw at rt overnight and then diluted in assay buffer according to the desired test concentrations. Under these conditions, the maximal final DMSO concentration in the assay was 0.1%.
In deep-well plates, 220 μL of diluted cell membranes (final concentration: 0.71 μg/well) were combined with 40 μL of either binding buffer (total binding, N=5), 1 μM ghrelin (non-specific binding, N=3) or the appropriate concentration of test compound N=2 for each test concentration). […] Plates were sealed with TopSeal-A, vortexed gently and incubated at rt for 30 min. The reaction was arrested by filtering samples through Multiscreen Harvest plates (pre-soaked in 0.5% polyethyleneimine) using a Tomtec Harvester, washed 9 times with 500 μL of cold 50 mM Tris-HCl (pH 7.4, 4° C.), and then plates were air-dried in a fumehood for 30 min. A bottom seal was applied to the plates prior to the addition of 25 μL of MicroScint-0 to each well. Plates were than sealed with TopSeal-A and counted for 30 sec per well on a TopCount Microplate Scintillation and Luminescence Counter (PerkinElmer) using a count delay of 60 sec. Results were expressed as counts per minute (cpm).
Data were analyzed by GraphPad Prism (GraphPad Software, San Diego, Calif.) using a variable slope non-linear regression analysis.
Dmax values were calculated using the following formula: […]
where total and non-specific binding represent the cpm obtained in the absence or presence of 1 μM ghrelin, respectively.

For test [2], the target named is T2, ghrelin receptor (Homo sapiens, UniProt Q92847). Kind of test: Inverse agonist assay, Example 4. The class given is cell-based. Conditions: inverse agonist activity. The text has this: The inverse agonist activity at the ghrelin receptor for compounds of the invention can be determined using the methods described in Intl. Pat. Appl. Publ. No. WO 2004/056869 and Holst, B.; Cygankiewicz, A.; Halkjaer, T.; Ankersen, A.; Schwartz, T. W. High constitutive signaling of the ghrelin receptor—identification of a potent inverse agonist. Mol. Endocrinol. 2003, 17, 2201-2210.

For test [3], the target named is T2, ghrelin receptor. Briefly: Aequorin functional assay (ghrelin receptor), Example 3. Particulars: for IC50: antagonist testing vs ghrelin at EC80 (3.7 nM). The class given is cell-based. Details: host or cells: CHO-K1 cells co-expressing Gα16 and mitochondrially targeted Aequorin. The text has this:
The functional activity of compounds of the invention found to bind to the GHS-R1a receptor can be determined using the method described below. (LePoul, E.; et al. Adaptation of aequorin functional assay to high throughput screening. J. Biomol. Screen. 2002, 7, 57-65; Bednarek, M. A.; et al. Structure-function studies on the new growth hormone-releasing peptide ghrelin: minimal sequence of ghrelin necessary for activation of growth hormone secretagogue receptor 1a. J. Med. Chem. 2000, 43, 4370-4376; Palucki, B. L.; et al. Spiro(indoline-3,4′-piperidine) growth hormone secretagogues as ghrelin mimetics. Bioorg. Med. Chem. Lett. 2001, 11, 1955-1957).
Membranes were prepared using AequoScreen™ (EUROSCREEN, Belgium) cell lines expressing the human ghrelin receptor (cell line ES-410-A; receptor accession #60179). This cell line is constructed by transfection of the human ghrelin receptor into CHO-K1 cells co-expressing Gα16 and the mitochondrially targeted Aequorin (Ref #ES-WT-A5). • 1. Ghrelin (reference agonist; Bachem, #H-4864) • 2. Assay buffer: DMEM (Dulbecco's Modified Eagles Medium) containing 0.1% BSA (bovine serum albumin; pH 7.0. • 3. Coelenterazine (Molecular Probes, Leiden, The Netherlands)
Stock solutions of compounds (10 mM in 100% DMSO) were provided frozen on dry ice and stored at −20° C. prior to use. From the stock solution, mother solutions were made at a concentration of 500 μM 20-fold dilution in 26% DMSO. Assay plates were then prepared by appropriate dilution in DMEM medium containing 0.1% BSA. Under these conditions, the maximal final DMSO concentration in the assay was <0.6%.
AequoScreen™ cells were collected from culture plates with Ca^2+ and Mg^2+-free phosphate buffered saline (PBS) supplemented with 5 mM EDTA, pelleted for 2 minutes at 1000×g, re-suspended in DMEM-Ham's F12 containing 0.1% BSA at a density of 5×10^6 cells/ml and incubated overnight at room temperature in the presence of 5 μM coelenterazine. After loading, cells were diluted with assay buffer to a concentration of 5×10^5 cells/ml.
For agonist testing, 50 μl of the cell suspension was mixed with 50 μl of the appropriate concentration of test compound or ghrelin (reference agonist) in 96-well plates (duplicate samples). Ghrelin (reference agonist) is tested at several concentrations concurrently with the test compounds in order to validate the experiment. The emission of light resulting from receptor activation in response to ghrelin or test compounds was recorded using the Hamamatsu FDSS 6000 reader (Hamamatsu Photonics K.K., Japan).
For antagonist testing, an approximate EC80 concentration of ghrelin (i.e. 3.7 nM; 100 μL) was injected onto the cell suspension containing the test compounds (duplicate samples) 15-30 minutes after the end of agonist testing and the consequent emission of light resulting from receptor activation was measured as described in the paragraph above.
Results are expressed as Relative Light Units (RLU). […] For agonist testing, results for each concentration of test compound were expressed as percent activation relative to the signal induced by ghrelin at a concentration equal to the EC80 (i.e. 3.7 nM). EC50, Hill slope and % Emax values are reported.
For antagonist testing, results for each concentration of test compound were expressed as percent inhibition relative to the signal induced by ghrelin at a concentration equal to the EC80.

T1 sequence (Q92847 whole entry): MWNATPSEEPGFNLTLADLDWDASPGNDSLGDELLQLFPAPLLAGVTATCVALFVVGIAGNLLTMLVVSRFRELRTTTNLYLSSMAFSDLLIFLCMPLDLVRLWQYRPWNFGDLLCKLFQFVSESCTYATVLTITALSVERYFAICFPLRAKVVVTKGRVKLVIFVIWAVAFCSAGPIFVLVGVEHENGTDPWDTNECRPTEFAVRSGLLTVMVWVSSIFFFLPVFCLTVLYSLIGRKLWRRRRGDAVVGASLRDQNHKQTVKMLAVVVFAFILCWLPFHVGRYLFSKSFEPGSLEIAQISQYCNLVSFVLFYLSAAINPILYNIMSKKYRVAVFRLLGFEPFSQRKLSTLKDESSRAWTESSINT
T2 sequence (Q92847 whole entry): as above

In the case of `CCC(C)[C@@H]1NCCOc2ccccc2CCCNC(=O)[C@@H](Cc2ccccc2)NC(=O)[C@@H](CO)N(C)C1=O` (stereo in doubt) [Compound 152], the Ki in test [1] fell in the range of 100 to 1000 nM. The IC50 on ghrelin receptor [2] was over 10000 nM; against ghrelin receptor [3], 100 to 1500 nM. For the same compound, the “receptor activation (agonist activity)” value on ghrelin receptor [3] (agonist testing, in comparison to known ghrelin agonists) was “no receptor activation”.

In test [1], `CCC(C)[C@@H]1NCCOc2ccccc2CCCNC(=O)[C@@H](Cc2ccccc2)NC(=O)[C@@H](C)NC1=O` (stereo partly drawn) [Compound 2] came in with a Ki of 100 to 1000 nM.

Take `CCC(C)[C@@H]1NCCOc2ccccc2/C=C/CNC(=O)[C@H](Cc2ccccc2)NC(=O)[C@@H](C)NC1=O` (stereo partly drawn) [Compound 14]: the inhibitory constant (Ki) in test [1] was in the range of 100 to 1000 nM.

In test [1], `CCC[C@@H]1NCCOc2ccccc2CCCNC(=O)[C@@H](Cc2ccccc2)NC(=O)[C@H](C)NC1=O` [Compound 59] had a Ki of 1000 to 10000 nM.

In test [1], `CCC[C@@H]1NCCOc2ccccc2CCCNC(=O)[C@@H](Cc2ccccc2)NC(=O)[C@@H](C)NC1=O` [Compound 60] yielded a Ki of 100 to 1000 nM.

In test [1], `CCC[C@@H]1NCCOc2ccccc2CCCNC(=O)[C@@H](Cc2ccccc2)NC(=O)[C@H](C)N(C)C1=O` [Compound 79] displayed a Ki of 100 to 1000 nM.

With `CC(C)C[C@@H]1NCCOc2ccccc2CCCNC(=O)[C@H](Cc2ccccc2)NC(=O)[C@H](C)NC1=O` [Compound 93], the inhibition constant (Ki) in test [1] is 1000 to 10000 nM.

Consider `CC(C)C[C@@H]1NCCOc2ccccc2CCCNC(=O)[C@H](Cc2ccccc2)NC(=O)[C@@H](C)NC1=O` [Compound 94], for which the Ki in test [1] lay in the range of 1000 to 10000 nM.

Consider `CCC(C)[C@@H]1NCCOc2ccccc2CCCNC(=O)[C@@H](Cc2ccccc2)NC(=O)[C@@H](CO)NC1=O` (stereo partly drawn) [Compound 151], for which, in test [1], the inhibitory constant (Ki) was in the range of 1000 to 10000 nM.

`CCC(C)[C@@H]1NCCOc2ccccc2CCCNC(=O)[C@@H](Cc2ccccc2)NC(=O)[C@@H](COC(C)(C)C)NC1=O` (stereo partly drawn) [Compound 215]: in test [1], the Ki fell in the range of 1000 to 10000 nM.

With `CCC(C)[C@@H]1NCCOc2ccccc2CCCNC(=O)[C@@H](Cc2ccc(F)cc2)NC(=O)[C@@H](COCc2ccccc2)N(C)C1=O` (stereo partly drawn) [Compound 501], in test [1], the Ki was 100 to 1000 nM.

`CCC(C)[C@@H]1NCCOc2ccccc2CCCNC(=O)[C@@H](Cc2ccccc2)NC(=O)[C@H](C(C)O)N(C)C1=O` (stereo partly drawn) [Compound 503] yielded a Ki in test [1] of 1 to 100 nM. The IC50 was in the range of 100 to 1000 nM at ghrelin receptor [2] and 1 to 100 nM against ghrelin receptor [3].

On to `CCC(C)[C@@H]1NCCOc2ccccc2/C=C/CNC(=O)[C@@H](Cc2ccc(F)cc2)NC(=O)[C@H](C(C)O)N(C)C1=O` (stereo partly drawn) [Compound 504], for which the Ki in test [1] lay within 1 to 100 nM. The IC50 lay in the range of 100 to 1000 nM at ghrelin receptor [2] and 1 to 100 nM at ghrelin receptor [3].

With `CC(O)[C@H]1C(=O)N[C@H](Cc2ccc(F)cc2)C(=O)NCCCc2ccccc2O[C@H](C)CN[C@@H](C2CC2)C(=O)N1C` (stereo partly drawn) [Compound 505], the inhibition constant Ki in test [1] was in the range of 100 to 1000 nM. Besides, the IC50 at ghrelin receptor [2] was 100 to 1000 nM; at ghrelin receptor [3], 100 to 1500 nM.

For the compound `CCC(C)[C@@H]1NCCOc2ccccc2CCCNC(=O)[C@@H](Cc2ccccc2)NC(=O)[C@H](CCO)N(C)C1=O` (stereo partly drawn) [Compound 506], the inhibitory constant (Ki) in test [1] is 100 to 1000 nM. The concentration for half-maximal inhibition (IC50) on ghrelin receptor [2] is over 10000 nM; against ghrelin receptor [3], 100 to 1500 nM.

As for `CCC(C)[C@@H]1NCCOc2ccccc2/C=C\CNC(=O)[C@@H](Cc2ccc(F)cc2)NC(=O)[C@H](C(C)O)N(C)C1=O` (stereo partly drawn) [Compound 508], the Ki in test [1] was 1 to 100 nM. Further, the IC50 at ghrelin receptor [3] is 100 to 1500 nM.

Turning to `CC[C@@H](C)[C@H]1NCCOc2ccccc2CCCNC(=O)[C@@H](Cc2ccccc2)NC(=O)[C@H]([C@H](C)O)N(C)C1=O` [Compound 509], in test [1], the inhibitory constant (Ki) lay within 100 to 1000 nM. For the same compound, the IC50 at ghrelin receptor [3] was over 1500 nM.
